From patent publication US20160090351A1, “INHIBITORS OF DEUBIQUITINATING PROTEASES” (BRANDEIS UNIVERSITY, priority 2013, published 2016)

Tests used:
[1] = test system: ubiquitin-proteasome system; assay: GFP-G76V-Ub assay in HEK 293T cells; assay type: cell-based, human; settings: diphenyl carbonates 100 μM, bortezomib 20 μM, G5 2 μM
Method: (§1) FIG. 32 depicts data showing that diphenyl carbonates inhibit DUBs in HEK 293T cells. A. Viability of HEK 293T cells assessed by the propidium iodide exclusion method: diphenyl carbonate (100 μM), bortezomib (V, 20 μM) and G5 (2 μM). N≧3, mean+/−s.d. B. HEK 293T cells were treated with the stated compounds (50 μM) for 2 h and then assayed for the accumulation of K48-linked Ub species. C. As in A, but K63-linked Ub was assayed. D. HEK 293T cells were treated with C14, C15, C17, C18 (100 μM) or DMSO for 2 hours, then harvested, lysed and treated with HA-Ub-VS. After 30 min, lysates were analyzed by SDS-PAGE and probed for HA, tubulin and actin. An intervening lane was removed for clarity. E. HEK 293T cells expressing Ub-G76V-GFP were treated with diphenyl carbonates (100 μM), bortezomib (20 μM) and G5 (2 μM). […] N>3, Mean+/−s.d. See also FIG. 39.
FACS was carried out on a […] FACS-Calibur. For HEK 293T and K562, cells were resuspended by repeated pipetting/agitation of the incubation media, followed by dilution into PBS. For Cos-1, MCF-7, and CHO cells, media was removed and trypsin was added. Harvested cells were placed in FACS buffer (0.5% FBS in PBS with 3 μg/mL propidium iodide) 30 s prior to analysis. All data were analyzed using FlowJo V10, from TreeStar (Ashland, Oreg.). Approximately 2500 cells were sorted per replicate. Cells were sorted by propidium iodide dye exclusion to give a “viable population”. GFP positive cells within this group were identified relative to untransfected controls. Then the geometric mean of the whole GFP positive population within the viable population was calculated. Typical transfection efficiencies for G76V ubiquitin were 60-70% for both Cos-1 and HEK 293T and 25-40% for CHO cells, based on GFP positive cells.
The activity of the diphenylcarbonates in the GFP-G76V-Ub assay, which monitors flux through the ubiquitin-proteasome system, was also investigated. The G76V mutation creates an unstable Ub fusion protein that is degraded in a proteasome dependent process. GFP fluorescence increased when HEK 293T cells expressing GFP-G76V-Ub were treated with the proteasome inhibitor bortezomib and decreased upon treatment with G5 (FIG. 39). This decrease has been attributed to increased flux through the ubiquitin-proteasome system triggered by the accumulation of HMW-Ub. […] Perhaps the inability of the diphenylcarbonates to inhibit UCH-L1/3 accounts for the stability of GFP-G76V-Ub. This selectivity might also explain the low cytoxicity of these compounds relative to G5.

[2] = test system: UCH-L5, UCH-L3, UCH-L1; assay: HA-Ub-VS activity profiling in cell lysates, UCH-Ls; assay type: biochemical, human; settings: for HA-Ub-VS labeling of UCHL enzymes: 75 μM, 30 minutes preincubation
Method: HA-ubiquitin vinylsulfone (HA-Ub-VS) irreversibly labels DUBs by modifying the catalytic cysteine residue Inhibition of the DUB prevents HA-Ub-VS labeling and the band is. […] The interaction with UCHL1/3 is reversible.
Lysate labeling assay on untransfected cells (1.5 mg/mL) was run with the stated concentration of inhibitor (or 1% DMSO control) for between 19-60 mins. After this time HA-Ub-VS (1.5-0.7 μM) was added and incubated for 19 mins. After this time reaction mixture (9 μL) was removed and quenched in 2× (final concentration) reducing loading buffer. For recovery experiments, a lysate of 6 mg/mL was treated with saturating compound C14 (250 μM) and incubated for 40 mins. Afterward, the lysate was diluted to 0.6 mg/mL (final concentration of inhibitor 25 μM) in lysis buffer (final volume 100 μL), then HA-Ub-VS was added. Aliquots (15 μL) were removed at the stated time (5-119 mins) and immediately quenched in 2× (final concentration) reducing loading buffer. For all HA-Ub-VS experiments samples in loading buffer were heated only to 37° C. prior to loading on a gel. This assay is highly susceptible to concentration of lysate and HA-Ub-VS. Cell experiments were carried out as above with some modifications. For Cos-1 and MCF-7 cells, after trypsinization, media with compound was added to give a final concentration of compound equal to that used in the assay. Cell pellets were lysed on an ice/salt bath with a temperature of −5° C. and lysate was centrifuged for only 5 mins.
HA-Ub-VS is an irreversible inhibitor of DUBs that is widely used in activity profiling. If the DUB inhibitors react to form a thiocarbonylated enzyme as proposed (FIG. 29B), then HA-Ub-VS labeling will be blocked. Treatment of HEK 293T lysates with HA-Ub-VS produced the characteristic pattern of protein bands at 250, 150-100, 45, 38 and 36 kDa, generally ascribed to USP9x (292 kDa), USP19 (146 kDa), USP7/8 (128 and 127 kDa, respectively), USP28/15 (122 and 112 kDa, respectively), UCH-L5 (38 kDa), UCH-L3 (26 kDa) and UCH-L1 (25 kDa) as depicted in FIG. 31.
The effect of diphenylcarbonates on HA-Ub-VS labeling was assessed to investigate the selectivity of DUB inhibition. Lysates were preincubated with diphenyl carbonates (75 μM), then treated with HA-Ub-VS (FIG. 31A). […] These C17 and C22-sensitive DUBs are most likely USP9x, USP19, USP7/8 and UCHL5, based on molecular weight (FIGS. 31B and 38). The identity of USP7 was confirmed by immunoblotting (FIG. 38F). […] Similar behavior was observed on Cos-1 cell lysates (FIG. 38B).

[3] = test system: HEK 293T cells; assay: accumulation of K48- and K63-linked Ub species in HEK 293T cells; assay type: cell-based, human; settings: 50 μM, 2 h
Method: as §1, with “39. […]” for “39.”

Row | SMILES | GFP fluorescence [1] | HA-Ub-VS labeling of UCH-Ls ([2]; HEK 293T lysates, preincubation with G5) | accumulation of K48-linked HMW-Ub [3] | accumulation of K63-linked Ub chains [3] | HA-Ub-VS labeling of UCHL enzymes ([2]; HEK 293T lysates) | inhibition of UCH-L1/3/5, dose response ([2]; below 50 μM)
1 | O=C1/C(=C/c2ccc([N+](=O)[O-])cc2)CS(=O)(=O)C/C1=C\c1ccc([N+](=O)[O-])cc1 [Compound G5, reference compound] | decreased | UCH-L1 but not UCH-L3 |  |  |  | 
2 | NCc1ccc(OC(=O)Oc2cccc3ccccc23)cc1 [Compound C18] | no change in fluorescence was observed |  | K48-linked HMW-Ub species accumulated | increase the accumulation of K63-linked Ub chains | relatively little effect on the UCHL enzymes | 
3 | NCc1ccc(OC(=O)Oc2ccc(Cl)cc2)cc1 [Compound C14, 4-(aminomethyl)phenyl(4-chlorophenol)carbonate] | no change in fluorescence was observed |  | K48-linked HMW-Ub species accumulated | increase the accumulation of K63-linked Ub chains | relatively little effect on the UCHL enzymes | 
4 | NCc1ccc(OC(=O)Oc2ccc3ccccc3c2)cc1 [Compound C17] | no change in fluorescence was observed |  | K48-linked HMW-Ub species accumulated | increase the accumulation of K63-linked Ub chains | relatively little effect on the UCHL enzymes | little inhibition of UCH-L1/3/5 was observed below 50 μM
5 | NCc1ccc(OC(=O)Oc2ccc(Br)cc2)cc1 [Compound C15, 4-(aminomethyl)phenyl(4-bromophenyl)carbonate] | no change in fluorescence was observed |  | K48-linked HMW-Ub species accumulated | increase the accumulation of K63-linked Ub chains | relatively little effect on the UCHL enzymes | 
